Legend:
[1] = mouse plasma protein binding; assay type: in vitro ADME; conditions: read-out: Mouse plasma protein binding (PPB %) (converted)
Method: Initial in vivo studies aimed at understanding the pharmacokinetic and pharmacodynamic (PK/PD) relationship and optimizing the dosing regimen were conducted. HC-5404 was quantified from mouse plasma following a single oral administration (PO) at doses ranging from 3 to 100 mg/kg. […] Mouse plasma protein binding (PPB %) was determined to be 95.6%, which enabled us to calculate the free drug plasma exposure across time (FIG. 18).

RXF-2304 = experiment: RCC PDX single animal trial, RXF-2304; assay type: in vivo, mouse; conditions: HC-5404 30 mg/kg PO BID, n=1
Source text: This example investigated the effect of HC-5404 in combination with VEGFR-TKIs in inhibiting tumor growth using 12 RCC PDX tumor models, following procedures analogous to those described above.
Single animal per group (n=1) trial of animals harboring diverse RCC PDX models were used in this study.

pPERK in A498 tumors = experiment: pPERK in A498 tumor xenografts; assay type: in vivo, mouse
Method: Samples were put in 500 μL of Novex lysis buffer consisting of 2× Novex Tris-Glycine SDS sample buffer (ThermoFisher LC2676), 1× Phosphatase Inhibitor Cocktail III (Sigma P0044), 1× PhosphataseArrest I (Gbioscience 113P-D), 1×2-mercaptoethanol (Gibco 21985023), 1× Benzonase (EMD Millipore Corp 70746-3), and 1× Protease inhibitor cocktail tablet (Roche/Sigma 11836170001). Samples were homogenized with the Polytron and heated for 10 min at 95 °C. They were then centrifuged at max speed for 10 min and the supernatant was transferred. Protein concentrations of samples were measured using the Pierce 660 nm Protein assay kit (Thermo Scientific 22660) according to the manufacturer's instructions.
Western Blot analysis was performed on the SimpleWestern high-throughput protein analysis platform (ProteinSimple 004-650) according to manufacturer's protocol using a 12-230 kDA Separation Module (ProteinSimple SM-W004) and Total Protein Detection Module (ProteinSimple DM-TP01). Antibodies used were: (Add info for other antibodies used) pPERK (Lilly; 1:50) and PERK (Cell Signaling Technology 5683; 1:200). All protein analytes were normalized to total protein loaded on capillary. […]

[2] = system: mouse bone marrow-derived MDSCs / T cells; experiment: mouse T cell suppression assay with bone marrow-derived MDSCs; assay type: cell-based; conditions: LSLG + 500 nM (FIG. 11A, 11C)
Method: Mouse MDSC Preparation: Single cell suspensions from bone marrow were prepared from the tibia and femur bone of C57BL/6 mice. Cells were cultured in RPMI complete medium (RPMI medium supplemented with 10% FBS, 10 mM HEPES, 1 mM Sodium pyruvate, 50 uM 2-ME, 1 mM MEM NEAA, 1× penicillin-streptomycin and 2 mM L-glutamax) at 2.5×10^6 cells per 10 ml in a […] tissue culture dish for 4 days in a 37 0 °C, 5% CO2 humidified incubator. Cytokines GM-CSF (10 ng/ml) and IL-6 (10 ng/mL) were added to the cell culture on day 0. For low serum low glucose (LSLG) medium treatment, cultured cells were first harvested from the plate and washed twice with RPMI medium to rinse off residual serum and glucose, and then cultured in 5 ml of LSLG medium (glucose-free RPMI supplemented with 1% FBS, 1 g/L glucose, 1× penicillin-streptomycin and 2 mM L-glutamax) in a 15 ml conical tube for 6 hours with or without HC-5404 addition. Cells were harvested and used in the T cell suppression assay.
Mouse T cell suppression assay: Spleens were harvested from C57BL/6 mice. […] T cell proliferation was analyzed by flow cytometry. […] The labeled cells were analyzed on a BD Fortessa cytometer and data was analyzed by FlowJo. […] Data were analyzed using one-way ANOVA with multiple comparison corrected with Dunnett test. *P<0.05; **P<0.01; ***P<0.005, ****P<0.0001 (FIGS. 11A, 11B, and 11C).

PERK = target: T1, PERK (Homo sapiens, UniProt Q9NZJ5); experiment: cell-free FRET-based biochemical assay, PERK; conditions: role: inhibitor; ratio of IC50 values
T1 construct: purchased Carna
Method: The potency of HC-5404 against four ISR kinases was evaluated in cell-free FRET-based biochemical assays, following manufacturer's instructions (Carna).
Cell-free biochemical assays were used to evaluate the selectivity of HC-5404 for PERK, relative to the ISR kinases GCN2, HRI, and PKR. In these assays, recombinant target kinases were incubated with […] and an eIF2α-based fluorogenic substrate, and kinase activity was evaluated in presence of HC-5404 across a concentration series.

HMGB1 in 786-O xenograft = experiment: HMGB1 IHC in 786-O xenografts; assay type: in vivo, mouse; conditions: 30 mg/kg, compared to vehicle (FIG. 4D)
Method: 786-O tumor cells were maintained in vitro with MEM medium supplemented with 10% heat inactivated fetal bovine serum and 0.01 mM NEAA, at 37 °C in an atmosphere of 5% CO2. Each mouse was inoculated subcutaneously at the right front region with 786-O tumor cells (5×106) in 0.1 ml of PBS (1:1 matrigel) for tumor development. The randomization for efficacy study began when the mean tumor size reached approximately 200-300 mm^3, preferably to initiate with 250 mm^3. […]
Paraffin sections of tumor samples were stained on slides for HMGB1 using the Abcam antibody (cat #ab18256) and chromogenic DAB staining on Bond Rx (Leica Biosystems). The slides were digitized by Leica AT2 slide scanner with 40× objective. The scanned images were analyzed using custom-written macro in ImageJ/FIJI (NIH) to measure nuclear and non-nuclear signal (FIGS. 4C and 4D).

T1 sequence (Q9NZJ5 30-1116): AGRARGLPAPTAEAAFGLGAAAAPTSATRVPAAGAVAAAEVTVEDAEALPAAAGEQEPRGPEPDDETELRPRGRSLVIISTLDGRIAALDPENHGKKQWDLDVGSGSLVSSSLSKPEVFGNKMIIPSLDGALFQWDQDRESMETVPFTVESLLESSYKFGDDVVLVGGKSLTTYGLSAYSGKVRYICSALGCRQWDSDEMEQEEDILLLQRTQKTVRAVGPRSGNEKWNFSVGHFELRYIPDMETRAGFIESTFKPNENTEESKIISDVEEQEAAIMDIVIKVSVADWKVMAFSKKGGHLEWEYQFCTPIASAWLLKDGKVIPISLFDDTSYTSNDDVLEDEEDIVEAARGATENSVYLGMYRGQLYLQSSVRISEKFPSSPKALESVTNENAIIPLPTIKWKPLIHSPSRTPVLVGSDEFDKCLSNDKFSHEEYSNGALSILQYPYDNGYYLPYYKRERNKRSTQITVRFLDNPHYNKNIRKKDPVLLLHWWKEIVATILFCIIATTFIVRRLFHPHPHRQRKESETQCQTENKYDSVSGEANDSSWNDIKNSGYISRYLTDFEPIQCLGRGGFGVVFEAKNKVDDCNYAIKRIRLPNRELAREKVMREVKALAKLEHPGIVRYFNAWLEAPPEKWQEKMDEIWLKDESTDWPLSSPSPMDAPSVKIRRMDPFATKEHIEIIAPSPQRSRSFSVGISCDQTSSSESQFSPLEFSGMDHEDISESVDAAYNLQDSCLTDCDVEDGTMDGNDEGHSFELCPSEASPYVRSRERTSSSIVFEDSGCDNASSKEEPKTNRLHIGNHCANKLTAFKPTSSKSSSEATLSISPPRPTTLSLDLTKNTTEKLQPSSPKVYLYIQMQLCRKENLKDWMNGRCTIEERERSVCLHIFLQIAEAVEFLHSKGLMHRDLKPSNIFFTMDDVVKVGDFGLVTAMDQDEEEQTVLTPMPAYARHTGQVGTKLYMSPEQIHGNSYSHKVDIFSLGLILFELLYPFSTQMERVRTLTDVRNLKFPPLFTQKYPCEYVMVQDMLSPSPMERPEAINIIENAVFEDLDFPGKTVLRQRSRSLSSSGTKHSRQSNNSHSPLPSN

Cc1cc(NC(=O)[C@H](O)c2cc(F)cc(F)c2)ccc1-c1cnc(N)c(C(=O)NC(C)C)c1 [HC-5404, (R)-2-amino-5-(4-(2-(3,5-difluorophenyl)-2-hydroxyacetamido)-2-methylphenyl)-N-isopropylnicotinamide]
fraction unbound [1]: 0.044
antitumor efficacy as monotherapy (RXF-2304): exhibited antitumor efficacy
pPERK expression in A498 (pPERK in A498 tumors; 30 mg/kg PO BID, seven days (FIG. 30)): strongly inhibited pPERK expression
pPERK levels in A498 (pPERK in A498 tumors; DC-101 study, 4 days of treatment (FIG. 37)): inhibited the pPERK signal
inhibition of T-cells by MDSCs [2]: reduced inhibition of T-cells
biochemical selectivity for PERK over GCN2, HRI and PKR (PERK): > 2000 fold
HMGB1 cytoplasmic expression (HMGB1 in 786-O xenograft): induced
